Data from ChEMBL document CHEMBL5390237, “Discovery of Selective Histone Deacetylase 1 and 2 Inhibitors: Screening of a Focused Library Constructed by Click Chemistry, Kinetic Binding Analysis, and Biological Evaluation” (J Med Chem, 2023).

Each molecule was assayed against Histone deacetylase 2 (Homo sapiens, UniProt Q92769) (assay: Inhibition of full-length recombinant human C-terminal GST tagged HDAC2 expressed in Sf9 insect cells using aminoluciferin peptide substrate at 100 nM preincubated for 3 hrs followed by substrate addition and measured after 30 mins by HDAC-Glo I/II chemiluminescence assay). Conditions: time 3.5 hrs.
Chain of Histone deacetylase 2 (Q92769 whole entry): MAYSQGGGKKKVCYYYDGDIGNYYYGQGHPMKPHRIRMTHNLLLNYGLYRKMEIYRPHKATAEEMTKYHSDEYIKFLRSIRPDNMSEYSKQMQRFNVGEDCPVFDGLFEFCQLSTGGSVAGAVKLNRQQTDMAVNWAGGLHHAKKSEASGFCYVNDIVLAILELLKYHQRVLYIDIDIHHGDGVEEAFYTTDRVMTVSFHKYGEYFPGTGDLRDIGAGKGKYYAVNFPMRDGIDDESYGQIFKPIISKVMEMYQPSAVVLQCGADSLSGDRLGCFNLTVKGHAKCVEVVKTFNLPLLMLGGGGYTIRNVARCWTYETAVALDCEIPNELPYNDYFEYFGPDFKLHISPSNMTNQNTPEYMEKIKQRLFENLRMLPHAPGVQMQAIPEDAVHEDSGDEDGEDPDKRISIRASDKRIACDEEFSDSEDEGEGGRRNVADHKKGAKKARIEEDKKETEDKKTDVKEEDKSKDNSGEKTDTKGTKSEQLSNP

inhibition | Compound
8% | Nc1ccc(-c2ccc(F)cc2)cc1NC(=O)c1cn(-c2ccc([N+](=O)[O-])cc2)nn1
0% | Cc1ccc(-n2cc(CCC(=O)Nc3cc(-c4ccccc4)ccc3N)nn2)cc1C
14% | Nc1ccc(-c2ccsc2)cc1NC(=O)c1cn(CS(=O)(=O)c2ccccc2)nn1
14% | Nc1ccc(-c2ccsc2)cc1NC(=O)CCc1cn(CS(=O)(=O)c2ccccc2)nn1
20% | Nc1ccc(-c2cccs2)cc1NC(=O)c1cn(Cc2nc3ccccc3[nH]2)nn1
0% | Nc1ccc(-c2ccccc2)cc1NC(=O)c1cn(CCc2ccsc2)nn1
21% | Nc1ccc(-c2ccsc2)cc1NC(=O)CCc1cn(CCc2ccc(F)cc2)nn1
5% | Nc1ccc(-c2ccc(F)cc2)cc1NC(=O)c1cn(Cc2ccc(Oc3ccccc3)cc2)nn1
5% | Cc1ccc(-n2cc(-c3cccc(C(=O)Nc4cc(-c5cccs5)ccc4N)c3)nn2)cc1C
13% | Nc1ccc(-c2cccs2)cc1NC(=O)c1cn(Cc2cccc3ccccc23)nn1
0% | Nc1ccc(-c2cccnc2)cc1NC(=O)CCc1cn(Cc2cccc(C(=O)O)c2)nn1
3% | Nc1ccc(-c2ccccc2)cc1NC(=O)c1cn(/C=C/c2ccccc2)nn1
7% | Nc1ccc(-c2ccc(F)cc2)cc1NC(=O)c1cn(CS(=O)(=O)c2ccccc2)nn1
40% | Nc1ccc(-c2cccs2)cc1NC(=O)c1ccc(-c2cn(CCc3ccccc3)nn2)s1
0% | Nc1ccc(-c2ccccc2)cc1NC(=O)CCc1cn(CCCCC(=O)O)nn1
0% | Nc1ccc(-c2ccsc2)cc1NC(=O)c1cn(CCc2cccc(Cl)c2)nn1
17% | Nc1ccc(-c2cccs2)cc1NC(=O)CCc1cn(Cc2ccc(OC(F)(F)F)cc2)nn1
3% | Nc1ccc(-c2cccs2)cc1NC(=O)c1cn(CCc2ccccc2Cl)nn1
3% | Nc1ccc(-c2cccs2)cc1NC(=O)CCc1cn(CCc2cccc(C(F)(F)F)c2)nn1
0% | Nc1ccc(-c2ccsc2)cc1NC(=O)CCc1cn(CC23CC4CC(CC(C4)C2)C3)nn1
0% | Nc1ccc(-c2ccsc2)cc1NC(=O)CCc1cn(CC2CCCCC2)nn1
0% | Nc1ccc(-c2ccsc2)cc1NC(=O)CCc1cn(Cc2ccc(Oc3ccccc3)cc2)nn1
0% | Nc1ccc(-c2ccccc2)cc1NC(=O)CCc1cn(CCCCCCCC(=O)O)nn1
5% | COc1ccccc1CCn1cc(C(=O)Nc2cc(-c3ccc(F)cc3)ccc2N)nn1

inhibition | Compound
7% | Cc1ccccc1CCn1cc(CCC(=O)Nc2cc(-c3ccc(F)cc3)ccc2N)nn1
0% | Nc1ccc(-c2ccccc2)cc1NC(=O)CCc1cn(CCCCCc2ccccc2)nn1
4% | Nc1ccc(-c2cccnc2)cc1NC(=O)CCc1cn(CS(=O)(=O)c2ccccc2)nn1
0% | Nc1ccc(-c2cccs2)cc1NC(=O)c1cn(CCCCCC(=O)O)nn1
6% | CCc1ccc(Cn2cc(CCC(=O)Nc3cc(-c4ccsc4)ccc3N)nn2)cc1
14% | Nc1ccc(-c2cccs2)cc1NC(=O)c1cn(CCc2c[nH]c3ccccc23)nn1
0% | Nc1ccc(-c2cccs2)cc1NC(=O)c1ccc(-c2cn(-c3ccc(Br)cc3)nn2)s1
12% | Nc1ccc(-c2ccsc2)cc1NC(=O)CCc1cn(CC(=O)c2ccccc2)nn1
0% | Cc1ccccc1CCn1cc(C(=O)Nc2cc(-c3ccc(F)cc3)ccc2N)nn1
0% | Nc1ccc(-c2ccccc2)cc1NC(=O)c1cn(-c2ccc(O)cc2)nn1
20% | Nc1ccc(-c2cccs2)cc1NC(=O)c1cccc(-c2cn(CCN3CCc4ccccc4C3)nn2)c1
15% | Nc1ccc(-c2ccccc2)cc1NC(=O)CCc1cn(/C=C/c2ccccc2)nn1
5% | Nc1ccc(-c2ccc(F)cc2)cc1NC(=O)CCc1cn(CCCCCc2ccccc2)nn1
0% | Nc1ccc(-c2cccs2)cc1NC(=O)c1cccc(-c2cn(CCc3ccc(Cl)cc3)nn2)c1
5% | Nc1ccc(-n2cc(CCC(=O)Nc3cc(-c4cccnc4)ccc3N)nn2)cc1
0% | Nc1ccc(-c2ccc(F)cc2)cc1NC(=O)CCc1cn(Cc2ccc(OC(F)(F)F)cc2)nn1
4% | Nc1ccc(-c2cccs2)cc1NC(=O)c1cccc(-c2cn(Cc3ccc4ccccc4n3)nn2)c1
0% | Nc1ccc(-c2ccccc2)cc1NC(=O)c1cn(-c2ccc(I)cc2)nn1
0% | Nc1ccc(-c2ccccc2)cc1NC(=O)CCc1cn(CC2CCCCC2)nn1
23% | Nc1ccc(-c2cccnc2)cc1NC(=O)CCc1cn(CCc2ccccc2)nn1
17% | COc1ccc(CCn2cc(CCC(=O)Nc3cc(-c4ccccc4)ccc3N)nn2)cc1
30% | Cc1ccc(CCn2cc(CCC(=O)Nc3cc(-c4cccs4)ccc3N)nn2)cc1
30% | Nc1ccc(-n2cc(-c3cccc(C(=O)Nc4cc(-c5cccs5)ccc4N)c3)nn2)cc1
0% | Nc1ccc(-c2ccsc2)cc1NC(=O)c1cn(CCC23CC4CC(CC(C4)C2)C3)nn1

inhibition | Compound
15% | Nc1ccc(-c2ccc(F)cc2)cc1NC(=O)c1cn(-c2ccc(O)cc2)nn1
8% | Nc1ccc(-c2cccs2)cc1NC(=O)CCc1cn(-c2ccc(I)cc2)nn1
0% | Nc1ccc(-c2ccccc2)cc1NC(=O)CCc1cn(-c2cccc3ccccc23)nn1
15% | Nc1ccc(-c2cccs2)cc1NC(=O)CCc1cn(-c2ccc([N+](=O)[O-])cc2)nn1
0% | Nc1ccc(-c2cccs2)cc1NC(=O)c1cn(Cc2cccc(C(=O)O)c2)nn1
1% | Nc1ccc(-c2ccc(F)cc2)cc1NC(=O)c1cn(CCc2ccsc2)nn1
52% | Nc1ccc(-c2cccs2)cc1NC(=O)c1ccc(-c2cn(Cc3ccc4ccccc4n3)nn2)cc1
14% | Nc1ccc(-c2cccs2)cc1NC(=O)c1ccc(-c2cn(CCc3ccc(F)cc3)nn2)cc1
0% | Nc1ccc(-c2cccs2)cc1NC(=O)c1cn(CC23CC4CC(CC(C4)C2)C3)nn1
0% | Nc1ccc(-c2cccnc2)cc1NC(=O)CCc1cn(CCc2ccccn2)nn1
9% | Nc1ccc(-c2cccs2)cc1NC(=O)c1cn(CCCc2ccccc2)nn1
61% | Nc1ccc(-c2cccs2)cc1NC(=O)c1ccc(-c2cn(Cc3ccc(C(=O)O)cc3)nn2)s1
0% | COc1ccc(Cn2cc(-c3cccc(C(=O)Nc4cc(-c5cccs5)ccc4N)c3)nn2)cc1
9% | COc1ccc(-n2cc(CCC(=O)Nc3cc(-c4cccnc4)ccc3N)nn2)cc1
0% | Nc1ccc(-c2ccsc2)cc1NC(=O)CCc1cn(Cc2ccc(OC(F)(F)F)cc2)nn1
15% | Nc1ccc(-c2ccc(F)cc2)cc1NC(=O)CCc1cn(CCc2cccc(F)c2)nn1
5% | CCc1ccc(Cn2cc(CCC(=O)Nc3cc(-c4cccnc4)ccc3N)nn2)cc1
0% | Nc1ccc(-c2cccs2)cc1NC(=O)c1cccc(-c2cn(Cc3cccc(-c4ccccc4)c3)nn2)c1
2% | Nc1ccc(-c2cccs2)cc1NC(=O)c1cn(CCCCCCCC(=O)O)nn1
1% | Nc1ccc(-c2ccccc2)cc1NC(=O)CCc1cn(CCc2cccc(C(F)(F)F)c2)nn1
0% | Nc1ccc(-c2ccc(F)cc2)cc1NC(=O)c1cn(Cc2ccc(OC(F)(F)F)cc2)nn1
0% | Nc1ccc(-c2ccccc2)cc1NC(=O)c1cn(CCc2ccccc2C(F)(F)F)nn1
